Measured values taken from ChEMBL document CHEMBL3045385, “Design, synthesis and molecular modelling of novel 4-thiazolidinones of potential activity against Gram positive bacteria” (2013).
Converted amounts (≈) assume the structure as drawn. The source made the active and inactive calls. The calls are words filed in the database; no cut-off is given here.

Experiments:
[1] = test system: Staphylococcus aureus; assay: Antibacterial activity against Staphylococcus aureus ATCC 25293 at 6.25 to 100 ug/ml after 24 hr by two-fold serial dilution method; format: functional, organism-based
[2] = test system: Escherichia coli; assay: Antibacterial activity against Escherichia coli ATCC 25922 at 6.25 to 100 ug/ml after 24 hr by two-fold serial dilution method; format: functional, organism-based
[3] = test system: Salmonella typhimurium; assay: Antibacterial activity against Salmonella enterica subsp. enterica serovar Typhimurium at 6.25 to 100 ug/ml after 24 hr by two-fold serial dilution method; format: functional, organism-based
[4] = test system: Pseudomonas aeruginosa; assay: Antibacterial activity against Pseudomonas aeruginosa ATCC 27855 at 6.25 to 100 ug/ml after 24 hr by two-fold serial dilution method; format: functional, organism-based
[5] = test system: Candida albicans; assay: Antifungal activity against Candida albicans ATCC 10231 at 6.25 to 100 ug/ml after 7 days by two-fold serial dilution method; format: functional, organism-based
[6] = test system: Bacillus subtilis; assay: Antibacterial activity against Bacillus subtilis ATCC 10400 at 6.25 to 100 ug/ml after 24 hr by two-fold serial dilution method; format: functional, organism-based
[7] = test system: Shigella sonnei; assay: Antibacterial activity against Shigella sonnei ATCC 11060 at 6.25 to 100 ug/ml after 24 hr by two-fold serial dilution method; format: functional, organism-based
[8] = test system: Mycobacterium tuberculosis; assay: Antimycobacterium activity against Mycobacterium tuberculosis H37Rv at 100 ug/ml by Microplate Alamar Blue Assay; format: functional, organism-based
[9] = test system: Bacillus subtilis; assay: Antibacterial activity against Bacillus subtilis ATCC 10400 after 24 hr by two-fold serial dilution method; format: functional; details: ATCC 10400, 24 h
[10] = test system: Staphylococcus aureus; assay: Antibacterial activity against Staphylococcus aureus ATCC 25293 after 24 hr by two-fold serial dilution method; format: functional; details: ATCC 25293, 24 h
[11] = test system: Candida albicans; assay: microbe, parasite or virus in culture; details: ATCC 10231, 168 h
Description: Antifungal activity against Candida albicans ATCC 10231 after 7 days by two-fold serial dilution method

[12] = test system: Pseudomonas aeruginosa; assay: Antibacterial activity against Pseudomonas aeruginosa ATCC 27855 after 24 hr by two-fold serial dilution method; format: functional; details: ATCC 27855, 24 h
[13] = test system: Shigella sonnei; assay: Antibacterial activity against Shigella sonnei ATCC 11060 after 24 hr by two-fold serial dilution method; format: functional; details: ATCC 11060, 24 h
[14] = test system: Salmonella typhimurium; assay: Antibacterial activity against Salmonella enterica subsp. enterica serovar Typhimurium after 24 hr by two-fold serial dilution method; format: functional
[15] = test system: Escherichia coli; assay: Antibacterial activity against Escherichia coli ATCC 25922 after 24 hr by two-fold serial dilution method; format: functional; details: ATCC 25922, 24 h

| Structure (SMILES) | Activity [1] | Activity [2] | Activity [3] | Activity [4] | Activity [5] | Activity [6] | Activity [7] | Activity [8] | MIC [9] [µg/mL] | MIC [10] [µg/mL] | MIC [11] [µg/mL] | MIC [12] [µg/mL] | MIC [13] [µg/mL] | MIC [14] [µg/mL] | MIC [15] [µg/mL] |
| --- | --- | --- | --- | --- | --- | --- | --- | --- | --- | --- | --- | --- | --- | --- | --- |
| CC(Oc1cc(Cl)c(Cl)cc1Cl)C(=O)N/N=C\c1ccncc1 (configuration not stated) | inactive | inactive | inactive | inactive | inactive | inactive | inactive | inactive | – | – | – | – | – | – | – |
| CC(Oc1cc(Cl)c(Cl)cc1Cl)C(=O)N/N=C1/C(=O)Nc2ccccc21 (configuration not stated) | inactive | inactive | inactive | inactive | inactive | inactive | inactive | inactive | – | – | – | – | – | – | – |
| CC(Oc1cc(Cl)c(Cl)cc1Cl)C(=O)N/N=C\c1cccnc1 (configuration not stated) | inactive | inactive | inactive | inactive | inactive | inactive | inactive | inactive | – | – | – | – | – | – | – |
| C#CCN1C(=O)C2(SCC(=O)N2NC(=O)C(C)Oc2cc(Cl)c(Cl)cc2Cl)c2ccccc21 (configuration not stated) | – | inactive | inactive | inactive | inactive | – | inactive | inactive | 50 (≈ 95.3 µM) | 50 (≈ 95.3 µM) | – | – | – | – | – |
| CC(Oc1cc(Cl)c(Cl)cc1Cl)C(=O)NN1C(=O)CSC1c1cccnc1 (configuration not stated) | – | inactive | inactive | inactive | inactive | – | inactive | inactive | 12.5 (≈ 28 µM) | 6.25 (≈ 14 µM) | – | – | – | – | – |
| CC(Oc1cc(Cl)c(Cl)cc1Cl)C(=O)N/N=C\c1cccc([N+](=O)[O-])c1 (configuration not stated) | inactive | inactive | inactive | inactive | inactive | inactive | inactive | inactive | – | – | – | – | – | – | – |
| Cc1ccc(C2SCC(=O)N2NC(=O)C(C)Oc2cc(Cl)c(Cl)cc2Cl)o1 (configuration not stated) | – | inactive | inactive | inactive | inactive | – | inactive | inactive | 12.5 (≈ 27.8 µM) | 12.5 (≈ 27.8 µM) | – | – | – | – | – |
| CC(Oc1cc(Cl)c(Cl)cc1Cl)C(=O)N/N=C\c1cccs1 (configuration not stated) | inactive | inactive | inactive | inactive | inactive | inactive | inactive | inactive | – | – | – | – | – | – | – |
| Cc1ccc(C2SCC(=O)N2NC(=O)C(C)Oc2cc(Cl)c(Cl)cc2Cl)s1 (configuration not stated) | – | inactive | inactive | inactive | inactive | – | inactive | inactive | 12.5 (≈ 26.8 µM) | 12.5 (≈ 26.8 µM) | – | – | – | – | – |
| C#CCN1C(=O)/C(=N/NC(=O)C(C)Oc2cc(Cl)c(Cl)cc2Cl)c2ccccc21 (configuration not stated) | inactive | inactive | inactive | inactive | inactive | inactive | inactive | inactive | – | – | – | – | – | – | – |
| C/C(=N/NC(=O)C(C)Oc1cc(Cl)c(Cl)cc1Cl)c1ccc(C)cc1 (configuration not stated) | inactive | inactive | inactive | inactive | inactive | inactive | inactive | inactive | – | – | – | – | – | – | – |
| Cc1ccc(/C=N\NC(=O)C(C)Oc2cc(Cl)c(Cl)cc2Cl)s1 (configuration not stated) | inactive | inactive | inactive | inactive | inactive | inactive | inactive | inactive | – | – | – | – | – | – | – |
| Clc1ccc(COC(Cn2ccnc2)c2ccc(Cl)cc2Cl)c(Cl)c1 (configuration not stated) [MICONAZOLE] | – | – | – | – | – | – | – | – | – | – | 3.12 (≈ 7.5 µM) | 3.12 (≈ 7.5 µM) | – | – | – |
| CC(Oc1cc(Cl)c(Cl)cc1Cl)C(=O)NN1C(=O)CSC12C(=O)Nc1ccccc12 (configuration not stated) | – | inactive | inactive | inactive | inactive | – | inactive | inactive | 50 (≈ 103 µM) | 25 (≈ 51.4 µM) | – | – | – | – | – |
| Cc1ccc(C2(C)SCC(=O)N2NC(=O)C(C)Oc2cc(Cl)c(Cl)cc2Cl)cc1 (configuration not stated) | – | inactive | inactive | inactive | inactive | – | inactive | inactive | 6.25 (≈ 13.2 µM) | 12.5 (≈ 26.4 µM) | – | – | – | – | – |
| O=C(N[C@H](CO)[C@H](O)c1ccc([N+](=O)[O-])cc1)C(Cl)Cl [CHLORAMPHENICOL] | – | – | – | – | – | – | – | – | 6.25 (≈ 19.3 µM) | 6.25 (≈ 19.3 µM) | – | – | 25 (≈ 77.4 µM) | 25 (≈ 77.4 µM) | 12.5 (≈ 38.7 µM) |
| C/C(=N/NC(=O)C(C)Oc1cc(Cl)c(Cl)cc1Cl)c1ccc(Cl)cc1 (configuration not stated) | inactive | inactive | inactive | inactive | inactive | inactive | inactive | inactive | – | – | – | – | – | – | – |
| CC(Oc1cc(Cl)c(Cl)cc1Cl)C(=O)NN1C(=O)CSC1c1cccs1 (configuration not stated) | – | inactive | inactive | inactive | inactive | – | inactive | inactive | 6.25 (≈ 13.8 µM) | 6.25 (≈ 13.8 µM) | – | – | – | – | – |
| Cc1ccc(/C=N\NC(=O)C(C)Oc2cc(Cl)c(Cl)cc2Cl)o1 (configuration not stated) | inactive | inactive | inactive | inactive | inactive | inactive | inactive | inactive | – | – | – | – | – | – | – |
| CC(Oc1cc(Cl)c(Cl)cc1Cl)C(=O)NN1C(=O)CSC1(C)c1ccc(Cl)cc1 (configuration not stated) | – | inactive | inactive | inactive | inactive | – | inactive | inactive | 12.5 (≈ 25.3 µM) | 12.5 (≈ 25.3 µM) | – | – | – | – | – |
| CC(Oc1cc(Cl)c(Cl)cc1Cl)C(=O)NN1C(=O)CSC1c1ccncc1 (configuration not stated) | – | inactive | inactive | inactive | inactive | – | inactive | inactive | 6.25 (≈ 14 µM) | 6.25 (≈ 14 µM) | – | – | – | – | – |
| CC(Oc1cc(Cl)c(Cl)cc1Cl)C(=O)NN1C(=O)CSC1c1cccc([N+](=O)[O-])c1 (configuration not stated) | – | inactive | inactive | inactive | inactive | – | inactive | inactive | 12.5 (≈ 25.5 µM) | 12.5 (≈ 25.5 µM) | – | – | – | – | – |
